In patent US20250228239A1, “MOLECULES HAVING PESTICIDAL UTILITY, AND INTERMEDIATES, COMPOSITIONS, AND PROCESSES, RELATED THERETO” (priority 2024, published 2025):
Read-outs that look alike come from different tables or passages of the source.

Legend:
[1] = test system: Beet Armyworm (Spodoptera exigua, LAPHEG); experiment: Bioassays on Beet Armyworm (BAW), 128-well diet tray assay; format: in vivo; details: Spodoptera exigua, read-out: BAW
Outline: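 Diet-overlay assay: 50 μg/cm^2 compound applied in 90:10 acetone-water to artificial diet, allowed to dry, then infested with 1–5 L2 larvae/well; 8 wells/compound; covered, vented; 25° C., 14:10 L:D, 5–7 d; % mortality per well, averaged.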

[2] = test system: Cabbage Looper (Trichoplusia ni, TRIPNI); experiment: Bioassays on Cabbage Looper (CL), 128-well diet tray assay; format: in vivo; details: Trichoplusia ni, read-out: CL
Outline: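 Each of eight wells receives artificial diet treated at 50 μg/cm^2 with the test molecule, then one to five second-instar larvae. Incubation runs five to seven days at 25° C with a 14:10 light-dark cycle under vented covers. Mortality is scored per well as a percentage and averaged.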

[3] = Table ABC: Biological Results, species BAW
[4] = Table ABC: Biological Results, species CL

Row | SMILES | pest or weed control at 50 µg/cm2 [1, 3] [%] | pest or weed control at 50 µg/cm2 [2, 4] [%] | pest or weed control at 50 µg/cm2 ([1]; Beet Armyworm, rating class) [%] | pest or weed control at 50 µg/cm2 ([2]; Cabbage Looper, rating class) [%]
1 | Nc1c(Cl)cc(NC(=O)c2cc(NC(=O)[C@H]3[C@H](c4ccc(F)c(Cl)c4)C3(Cl)Cl)ccc2Cl)cc1Cl (relative stereo) [F1367, trans-N-(4-Amino-3,5-dichlorophenyl)-2-chloro-5-(2,2-dichloro-3-(3-chloro-4-fluorophenyl)cyclopropane-1-carboxamido)benzamide] | 50 to 100 | 50 to 100 |  | 
2 | N#Cc1cc(NC(=O)c2cc(NC(=O)[C@H]3[C@H](c4ccc(F)c(Cl)c4)C3(Cl)Cl)ccc2Cl)ccc1NC(=O)C(F)(F)F (relative stereo) [F1388, trans-2-Chloro-N-(3-cyano-4-(2,2,2-trifluoroacetamido)phenyl)-5-(2,2-dichloro-3-(3-chloro-4-fluorophenyl)cyclopropane-1-carboxamido)benzamide] | 50 to 100 | 50 to 100 |  | 
3 | Nc1c(F)ccc(NC(=O)c2cc(NC(=O)[C@H]3[C@H](c4ccc(F)c(I)c4)C3(Cl)Cl)ccc2Cl)c1F (relative stereo) [F1622, trans-N-(3-Amino-2,4-difluorophenyl)-2-chloro-5-(2,2-dichloro-3-(4-fluoro-3-iodophenyl)cyclopropane-1-carboxamido)benzamide] |  |  | 50 to 100 | 50 to 100
4 | O=C(Nc1ccc(F)c(NC(=O)C(F)F)c1F)c1cc(NC(=O)[C@H]2[C@H](c3cc(Cl)c(Cl)c(Br)c3)C2(Cl)Cl)ccc1Cl (relative stereo) [F1623, trans-5-(3-(3-Bromo-4,5-dichlorophenyl)-2,2-dichlorocyclopropane-1-carboxamido)-2-chloro-N-(3-(2,2-difluoroacetamido)-2,4-difluorophenyl)benzamide] |  |  | 50 to 100 | 50 to 100
5 | O=C(Nc1ccc(F)c(NC(=O)C(F)F)c1F)c1cc(NC(=O)[C@H]2[C@H](c3ccc(F)c(I)c3)C2(Cl)Cl)ccc1Cl (relative stereo) [F1624, trans-2-Chloro-5-(2,2-dichloro-3-(4-fluoro-3-iodophenyl)cyclopropane-1-carboxamido)-N-(3-(2,2-difluoroacetamido)-2,4-difluorophenyl)benzamide] |  |  | 50 to 100 | 50 to 100
6 | CC(=O)Nc1c(F)cc(F)cc1NC(=O)c1cc(NC(=O)[C@H]2[C@H](c3cc(Cl)cc(Cl)c3)C2(Cl)Cl)ccc1Cl (relative stereo) [F1632, trans-N-(2-Acetamido-3,5-difluorophenyl)-2-chloro-5-(2,2-dichloro-3-(3,5-dichlorophenyl)cyclopropane-1-carboxamido)benzamide] |  |  | 50 to 100 | 50 to 100
7 | CC(=O)Nc1cc(F)cc(F)c1NC(=O)c1cc(NC(=O)[C@H]2[C@H](c3cc(Cl)cc(Cl)c3)C2(Cl)Cl)ccc1Cl (relative stereo) [F1633, trans-N-(2-Acetamido-4,6-difluorophenyl)-2-chloro-5-(2,2-dichloro-3-(3,5-dichlorophenyl)cyclopropane-1-carboxamido)benzamide] |  |  | 50 to 100 | 50 to 100
8 | CC(=O)Nc1cc(NC(=O)c2cc(NC(=O)[C@H]3[C@H](c4cc(Cl)cc(Cl)c4)C3(Cl)Cl)ccc2Cl)ccc1F (relative stereo) [F1638, trans-N-(3-Acetamido-4-fluorophenyl)-2-chloro-5-(2,2-dichloro-3-(3,5-dichlorophenyl)cyclopropane-1-carboxamido)benzamide] |  |  | 50 to 100 | 50 to 100
9 | O=C(Nc1cc(F)cc(NC(=O)C(F)(F)F)c1)c1cc(NC(=O)[C@H]2[C@H](c3cc(Cl)cc(Cl)c3)C2(Cl)Cl)ccc1Cl (relative stereo) [F1639, trans-2-Chloro-5-(2,2-dichloro-3-(3,5-dichlorophenyl)cyclopropane-1-carboxamido)-N-(3-fluoro-5-(2,2,2-trifluoroacetamido)phenyl)benzamide] |  |  | 50 to 100 | 50 to 100
